In ChEMBL document CHEMBL1201862, “PubChem BioAssay data set” (2004):
Active and inactive are the calls of the source.

Key:
[1] = biological target: Peroxisome proliferator-activated receptor gamma/Nuclear receptor coactivator 1 (Homo sapiens, UniProt P37231); type: functional;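 note: agonist potency as compounds enhance coactivator SRC-1 recruitment to PPARgamma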
[2] = biological target: Peroxisome proliferator-activated receptor gamma/Nuclear receptor coactivator 2 (Homo sapiens, UniProt P37231); type: functional;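 note: agonist potency for raising coactivator recruitment to the receptor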
Chain of Peroxisome proliferator-activated receptor gamma/Nuclear receptor coactivator 2 (P37231 whole entry): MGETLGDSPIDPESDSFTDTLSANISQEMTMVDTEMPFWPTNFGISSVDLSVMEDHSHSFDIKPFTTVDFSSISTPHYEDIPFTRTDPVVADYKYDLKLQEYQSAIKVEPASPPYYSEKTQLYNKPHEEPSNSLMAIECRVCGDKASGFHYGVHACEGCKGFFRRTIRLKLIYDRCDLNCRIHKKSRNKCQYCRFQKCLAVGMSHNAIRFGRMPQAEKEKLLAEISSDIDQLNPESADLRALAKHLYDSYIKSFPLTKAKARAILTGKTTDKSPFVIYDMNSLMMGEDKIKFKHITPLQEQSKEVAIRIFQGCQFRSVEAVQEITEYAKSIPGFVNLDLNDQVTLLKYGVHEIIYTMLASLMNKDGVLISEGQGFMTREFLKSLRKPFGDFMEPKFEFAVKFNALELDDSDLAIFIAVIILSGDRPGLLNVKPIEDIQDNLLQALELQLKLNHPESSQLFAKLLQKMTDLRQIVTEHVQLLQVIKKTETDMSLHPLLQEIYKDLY
Chain of Peroxisome proliferator-activated receptor gamma/Nuclear receptor coactivator 2 (Q15596 whole entry, further chain): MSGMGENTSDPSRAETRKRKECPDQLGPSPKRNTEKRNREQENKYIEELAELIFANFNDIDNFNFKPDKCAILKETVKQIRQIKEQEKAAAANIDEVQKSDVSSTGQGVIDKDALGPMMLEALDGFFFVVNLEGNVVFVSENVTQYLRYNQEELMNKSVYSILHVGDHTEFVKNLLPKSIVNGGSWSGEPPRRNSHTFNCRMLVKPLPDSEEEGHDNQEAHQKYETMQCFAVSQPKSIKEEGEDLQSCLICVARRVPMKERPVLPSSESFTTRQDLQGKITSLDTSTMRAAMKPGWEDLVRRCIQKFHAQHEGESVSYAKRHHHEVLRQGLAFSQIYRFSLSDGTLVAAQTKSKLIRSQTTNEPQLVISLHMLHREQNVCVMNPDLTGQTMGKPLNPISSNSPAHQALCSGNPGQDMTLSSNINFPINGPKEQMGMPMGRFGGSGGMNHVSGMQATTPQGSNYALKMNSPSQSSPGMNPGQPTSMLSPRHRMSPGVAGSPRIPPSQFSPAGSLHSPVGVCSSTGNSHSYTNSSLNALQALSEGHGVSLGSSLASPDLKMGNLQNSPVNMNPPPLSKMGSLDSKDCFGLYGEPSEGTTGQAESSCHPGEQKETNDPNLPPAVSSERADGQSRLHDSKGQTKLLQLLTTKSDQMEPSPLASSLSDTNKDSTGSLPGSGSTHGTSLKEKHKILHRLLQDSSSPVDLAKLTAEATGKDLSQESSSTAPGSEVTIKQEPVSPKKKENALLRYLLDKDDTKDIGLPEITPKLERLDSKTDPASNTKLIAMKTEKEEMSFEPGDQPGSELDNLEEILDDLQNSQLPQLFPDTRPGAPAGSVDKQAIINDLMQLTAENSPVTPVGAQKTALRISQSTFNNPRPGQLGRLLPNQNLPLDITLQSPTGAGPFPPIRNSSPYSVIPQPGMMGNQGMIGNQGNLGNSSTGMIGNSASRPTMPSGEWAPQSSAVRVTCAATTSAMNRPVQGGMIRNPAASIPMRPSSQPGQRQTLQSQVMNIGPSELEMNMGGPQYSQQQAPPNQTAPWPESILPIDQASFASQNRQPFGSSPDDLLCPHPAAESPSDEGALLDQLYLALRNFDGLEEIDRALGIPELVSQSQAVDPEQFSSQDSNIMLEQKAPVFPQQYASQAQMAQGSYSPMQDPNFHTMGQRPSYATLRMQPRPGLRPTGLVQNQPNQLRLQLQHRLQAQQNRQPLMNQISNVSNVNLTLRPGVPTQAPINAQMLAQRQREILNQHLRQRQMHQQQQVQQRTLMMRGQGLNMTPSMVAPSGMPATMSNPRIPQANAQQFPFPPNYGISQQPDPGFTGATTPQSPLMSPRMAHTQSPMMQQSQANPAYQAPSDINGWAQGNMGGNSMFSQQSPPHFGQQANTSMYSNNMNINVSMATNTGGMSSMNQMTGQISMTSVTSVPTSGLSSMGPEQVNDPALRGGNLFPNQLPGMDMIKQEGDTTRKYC

[3] = biological target: Peroxisome proliferator-activated receptor gamma/Nuclear receptor coactivator 3 (Homo sapiens, UniProt P37231); type: functional;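 note: agonist potency for raising coactivator recruitment to the receptor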
Chain of Peroxisome proliferator-activated receptor gamma/Nuclear receptor coactivator 3 (P37231 whole entry, the tested form may be a part): as the sequence (P37231 whole entry) above
Chain of Peroxisome proliferator-activated receptor gamma/Nuclear receptor coactivator 3 (Q9Y6Q9 whole entry, further chain, the tested form may be a part): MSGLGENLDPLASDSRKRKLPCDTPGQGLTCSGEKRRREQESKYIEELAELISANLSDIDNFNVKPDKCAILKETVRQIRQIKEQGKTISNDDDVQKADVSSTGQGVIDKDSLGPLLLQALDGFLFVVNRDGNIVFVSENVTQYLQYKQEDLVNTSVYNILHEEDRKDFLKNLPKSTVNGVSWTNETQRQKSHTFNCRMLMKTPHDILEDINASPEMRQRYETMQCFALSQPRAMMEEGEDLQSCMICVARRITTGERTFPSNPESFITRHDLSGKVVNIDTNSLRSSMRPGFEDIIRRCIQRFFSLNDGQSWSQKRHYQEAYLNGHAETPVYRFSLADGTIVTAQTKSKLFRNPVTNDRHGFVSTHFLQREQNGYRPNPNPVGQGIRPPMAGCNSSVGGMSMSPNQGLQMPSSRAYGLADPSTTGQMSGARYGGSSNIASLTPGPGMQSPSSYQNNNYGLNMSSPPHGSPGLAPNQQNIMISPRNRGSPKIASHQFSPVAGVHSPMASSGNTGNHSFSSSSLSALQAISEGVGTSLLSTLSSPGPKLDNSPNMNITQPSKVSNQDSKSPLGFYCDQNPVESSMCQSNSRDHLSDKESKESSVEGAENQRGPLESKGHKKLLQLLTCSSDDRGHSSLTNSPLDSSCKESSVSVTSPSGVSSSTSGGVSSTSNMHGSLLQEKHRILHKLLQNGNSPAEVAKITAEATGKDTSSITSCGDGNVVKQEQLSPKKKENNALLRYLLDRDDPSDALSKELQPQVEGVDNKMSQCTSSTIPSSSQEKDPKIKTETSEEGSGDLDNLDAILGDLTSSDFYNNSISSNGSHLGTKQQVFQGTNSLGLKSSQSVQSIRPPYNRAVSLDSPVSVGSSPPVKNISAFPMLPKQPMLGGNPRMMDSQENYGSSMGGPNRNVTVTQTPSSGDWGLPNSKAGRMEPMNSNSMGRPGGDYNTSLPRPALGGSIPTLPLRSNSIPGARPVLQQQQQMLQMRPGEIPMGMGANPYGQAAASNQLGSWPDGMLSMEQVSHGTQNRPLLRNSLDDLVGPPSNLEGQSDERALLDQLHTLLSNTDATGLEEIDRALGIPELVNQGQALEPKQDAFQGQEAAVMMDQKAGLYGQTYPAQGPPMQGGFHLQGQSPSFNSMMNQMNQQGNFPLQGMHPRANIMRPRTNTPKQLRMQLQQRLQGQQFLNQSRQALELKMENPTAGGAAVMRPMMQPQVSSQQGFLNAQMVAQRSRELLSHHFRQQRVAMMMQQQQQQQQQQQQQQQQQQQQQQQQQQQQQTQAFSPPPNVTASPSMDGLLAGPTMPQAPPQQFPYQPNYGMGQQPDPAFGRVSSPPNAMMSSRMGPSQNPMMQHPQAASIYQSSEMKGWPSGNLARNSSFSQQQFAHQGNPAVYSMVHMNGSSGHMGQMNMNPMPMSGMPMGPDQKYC

[4] = biological target: T1, Oxysterols receptor LXR-beta (Homo sapiens, UniProt P55055); test: LXR agonists, Gal4 luciferase reporter, dose response, counter-screen for ssDAF-12 agonist project, cell-based, luminescence, HEK293, S. stercoralis campaign (AID 720737); type: functional; details: read-out: IC50 (the source's name)
T1 sequence (P55055 whole entry): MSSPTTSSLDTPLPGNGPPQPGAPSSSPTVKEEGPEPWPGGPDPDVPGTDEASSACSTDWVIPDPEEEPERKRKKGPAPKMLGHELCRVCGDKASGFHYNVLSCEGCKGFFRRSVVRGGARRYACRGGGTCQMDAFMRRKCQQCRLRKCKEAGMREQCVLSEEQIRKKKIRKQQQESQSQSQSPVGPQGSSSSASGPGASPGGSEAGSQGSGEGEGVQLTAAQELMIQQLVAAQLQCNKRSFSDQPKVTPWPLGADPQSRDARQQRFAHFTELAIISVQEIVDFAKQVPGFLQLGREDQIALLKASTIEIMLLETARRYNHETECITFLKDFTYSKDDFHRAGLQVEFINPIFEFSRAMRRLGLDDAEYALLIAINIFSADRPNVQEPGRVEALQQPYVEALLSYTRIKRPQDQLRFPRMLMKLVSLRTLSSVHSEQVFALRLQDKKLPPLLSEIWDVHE

[5] = Luminescence-based cell-based high throughput dose response assay to identify activators of the DAF-12 from the parasite S. stercoralis (ssDAF-12).; type: functional
[6] = Luminescence Cell-Based Dose Confirmation HTS to Identify Inhibitors of Polyadenylation.; type: functional
[7] = biological target: T2, Lytic switch protein BZLF1 (Epstein-Barr virus (strain B95-8) (HHV-4) (Human herpesvirus 4), UniProt P03206); test: EBV ZTA inhibitors, dose response, counter-screen for EBNA-1 inhibitor project, biochemical, fluorescence polarization, Epstein-Barr virus, 1536-well (AID 2377); set-up: species or system human gammaherpesvirus 4;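 note: fluorescence polarization of Cy5-labelled ZRE DNA probe bound by purified Zta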
T2 sequence (P03206 whole entry): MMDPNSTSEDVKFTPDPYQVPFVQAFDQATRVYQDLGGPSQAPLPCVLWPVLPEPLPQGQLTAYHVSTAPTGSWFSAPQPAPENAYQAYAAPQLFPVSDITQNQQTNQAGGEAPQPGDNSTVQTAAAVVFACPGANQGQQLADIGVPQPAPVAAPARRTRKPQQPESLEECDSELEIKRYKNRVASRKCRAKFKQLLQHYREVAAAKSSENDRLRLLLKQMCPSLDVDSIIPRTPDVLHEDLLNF

[8] = biological target: T3, Epstein-Barr nuclear antigen 1 (Epstein-Barr virus (strain B95-8) (HHV-4) (Human herpesvirus 4), UniProt P03211); test: EBNA-1 inhibitors, dose response, biochemical, fluorescence polarization, 1536-well (AID 2381); set-up: species or system human gammaherpesvirus 4;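 note: fluorescence polarization of a Cy5 DNA probe bound by EBNA-1 protein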
T3 sequence (P03211 whole entry): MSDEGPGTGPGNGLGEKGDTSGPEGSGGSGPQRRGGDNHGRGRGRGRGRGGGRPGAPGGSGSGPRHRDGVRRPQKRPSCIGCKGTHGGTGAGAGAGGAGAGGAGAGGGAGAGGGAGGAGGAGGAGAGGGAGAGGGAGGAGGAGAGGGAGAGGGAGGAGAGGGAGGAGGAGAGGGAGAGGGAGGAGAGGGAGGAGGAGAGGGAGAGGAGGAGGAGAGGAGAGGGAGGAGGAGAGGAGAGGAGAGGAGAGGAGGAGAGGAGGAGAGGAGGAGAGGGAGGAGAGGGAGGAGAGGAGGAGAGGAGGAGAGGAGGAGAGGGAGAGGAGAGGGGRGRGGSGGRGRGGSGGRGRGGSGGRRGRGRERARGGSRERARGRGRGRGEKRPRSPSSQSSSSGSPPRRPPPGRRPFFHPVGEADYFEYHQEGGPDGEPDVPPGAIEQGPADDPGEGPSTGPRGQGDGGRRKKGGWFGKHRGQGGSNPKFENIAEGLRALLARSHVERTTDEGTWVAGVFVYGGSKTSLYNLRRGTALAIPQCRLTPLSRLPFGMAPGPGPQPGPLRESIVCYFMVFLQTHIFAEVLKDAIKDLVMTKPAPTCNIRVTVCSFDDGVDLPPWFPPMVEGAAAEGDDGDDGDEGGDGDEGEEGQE

[9] = biological target: T1, Oxysterols receptor LXR-beta; type: functional, cell-based
[10] = Luminescence Cell-Based Dose Confirmation HTS to Identify Inhibitors of Platelet Dense Granule Release. [Related pubchem assays: 1663 (Primary HTS), 1678 (Summary of Project)]; type: functional
[11] = biological target: Luciferin 4-monooxygenase (Photinus pyralis, UniProt P08659); test: firefly luciferase enzyme inhibitors, dose response, biochemical, luminescence (AID 1891)
[12] = biological target: Disintegrin and metalloproteinase domain-containing protein 17 (Homo sapiens, UniProt P78536); test: ADAM17 protease inhibitors, dose response, counter-screen for ADAM10 exosite inhibitor project, biochemical, quenched FRET substrate (AID 743253)
Chain of Disintegrin and metalloproteinase domain-containing protein 17 (P78536 whole entry, the tested form may be a part): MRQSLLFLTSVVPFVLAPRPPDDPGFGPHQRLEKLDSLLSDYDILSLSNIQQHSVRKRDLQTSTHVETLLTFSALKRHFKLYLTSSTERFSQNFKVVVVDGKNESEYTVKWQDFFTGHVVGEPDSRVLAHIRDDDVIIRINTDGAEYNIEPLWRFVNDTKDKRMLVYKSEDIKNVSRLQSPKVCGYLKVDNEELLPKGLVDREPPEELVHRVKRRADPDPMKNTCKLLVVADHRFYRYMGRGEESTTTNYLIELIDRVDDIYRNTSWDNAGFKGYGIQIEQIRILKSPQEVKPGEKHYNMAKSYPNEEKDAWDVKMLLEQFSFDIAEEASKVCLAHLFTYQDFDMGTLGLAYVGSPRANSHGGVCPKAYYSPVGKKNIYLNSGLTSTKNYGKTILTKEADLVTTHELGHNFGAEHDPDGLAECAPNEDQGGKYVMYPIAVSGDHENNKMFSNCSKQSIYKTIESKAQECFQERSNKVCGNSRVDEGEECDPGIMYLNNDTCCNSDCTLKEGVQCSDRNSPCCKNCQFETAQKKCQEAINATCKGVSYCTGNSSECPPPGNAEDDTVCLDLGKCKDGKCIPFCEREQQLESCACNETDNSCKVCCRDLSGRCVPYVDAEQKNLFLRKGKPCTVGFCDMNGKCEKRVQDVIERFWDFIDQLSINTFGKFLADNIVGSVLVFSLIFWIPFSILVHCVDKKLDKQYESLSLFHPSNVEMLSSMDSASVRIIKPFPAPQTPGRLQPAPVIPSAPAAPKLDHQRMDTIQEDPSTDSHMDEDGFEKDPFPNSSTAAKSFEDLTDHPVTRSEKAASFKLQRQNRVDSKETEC

[13] = microbe, parasite or virus in culture; type: functional; details: Mycobacterium tuberculosis
[14] = ADAM10 inhibitors, peptide cleavage, dose response, biochemical, QFRET (AID 743254);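 note: ADAM10 enzyme with the DM2 quenched FRET peptide as substrate; EDANS fluorescence gain as the protease cuts the substrate; inhibitor potency against ADAM10 proteolytic activity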
[15] = HeLa cell cytotoxicity, dose response, cytotoxicity control for MgcRacGAP inhibitor project (AID 624300); type: functional
[16] = non-specific cell cytotoxicity, dose response, cytotoxicity control for PAX8 inhibitor project, plate reader, dry powder samples (AID 743021); type: functional, cell-based
Paired box protein Pax-8 = Paired box protein Pax-8 (Homo sapiens, UniProt Q06710); test: inhibitors of PAX8-driven TPO luciferase reporter, dose response, RMG-I cells, cherry-pick (AID 687027); type: functional, cell-based;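 note: luciferase reporter driven by Pax8 target thyroperoxidase promoter measured by SteadyGlo luminescence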
[17] = biological target: T4, DNA repair protein RAD52 homolog (Homo sapiens, UniProt P43351); type: functional, biochemical
T4 sequence (P43351 whole entry): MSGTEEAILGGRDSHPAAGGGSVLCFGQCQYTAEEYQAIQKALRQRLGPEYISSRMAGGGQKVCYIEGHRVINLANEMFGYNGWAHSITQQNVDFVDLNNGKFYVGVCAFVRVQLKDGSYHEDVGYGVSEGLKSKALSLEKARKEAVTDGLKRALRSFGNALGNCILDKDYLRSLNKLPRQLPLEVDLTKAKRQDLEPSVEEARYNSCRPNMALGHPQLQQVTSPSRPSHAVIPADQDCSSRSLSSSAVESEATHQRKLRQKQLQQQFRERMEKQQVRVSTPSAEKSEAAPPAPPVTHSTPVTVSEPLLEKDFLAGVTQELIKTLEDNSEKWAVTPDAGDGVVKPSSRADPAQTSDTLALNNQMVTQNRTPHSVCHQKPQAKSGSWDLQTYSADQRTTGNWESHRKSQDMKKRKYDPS

In the case of COc1ccc(NCCNc2ccc(OC)cc2)cc1, the EC50 [1] is reported as > 79.4 µM (not active), the EC50 [2] is reported as > 79.4 µM (not active) and the EC50 [3] is reported as > 79.4 µM (not active).

In the case of Clc1ccccc1Cn1nnc(-c2ccccc2)n1, the EC50 [4] is reported as > 67.5 µM (inactive) and the IC50 [5] is reported as > 67.5 µM (inactive).

With O=C(CSc1nc2cccnc2n1Cc1ccccc1)NCc1ccco1 the EC50 [1] was > 79.4 µM (not active), the EC50 [2] was > 79.4 µM (not active) and the EC50 [3] was > 79.4 µM (not active).

With CC(=O)c1c(COC(=O)c2ccc(Cl)cc2)nc2ccccc2[n+]1[O-] the EC50 [6] was > 120 µM (not active).

With Cc1cccc(N(C(=O)c2snc(C(N)=O)c2N)C(C(=O)NCC2CCCO2)c2ccc(N(C)C)cc2)c1C (stereo unspecified) the IC50 [7] was > 111 µM (not active) and the IC50 [8] was 2.73 µM (active).

With COc1ccc(C(=O)/C=C/Nc2cc(C)ccn2)cc1 the EC50 [9] was > 67.6 µM (inactive), the EC50 (cells) was > 67.6 µM (inactive) and the EC50 [10] was 7.6 µM (active). For the same compound, the EC50 [11] was 1.69 µM (active).

In the case of CCOC(=O)c1s/c(=N\C(=O)c2ccc(Cl)s2)n(C)c1C, the EC50 [9] is reported as > 67.5 µM (inactive) and the EC50 (cells) is reported as > 67.5 µM (inactive).

In the case of Fc1ccccc1-c1ccc(/C=N/Nc2nc3ccccc3[nH]2)o1, the EC50 [4] is reported as > 67.5 µM (inactive) and the IC50 [5] is reported as > 67.5 µM (inactive).

With O=C(NC(C(=O)N/N=C/c1cccc2ccccc12)c1nnc(O)c2ccccc12)c1ccccc1 (stereo unspecified) the IC50 [12] was > 69.5 µM (inactive), the CC50 [13] was > 40 µM (active) and the IC50 [14] was > 69.5 µM (inactive).

With COc1ccc2cc(CNCCOCCOCCNCc3ccc4cc(OC)ccc4c3)ccc2c1 the CC50 [15] was 9.1 µM (active), the AC50 [16] was 20.3 µM (active) and the AC50 (Paired box protein Pax-8) was 19.1 µM (active). For the same compound, the AC50 [17] was 2.45 µM (active).
